Test results as given in patent US4112105A, “Anti-inflammatory 3-(substituted-amino)-2,1-benzisothiazoles” (Sterling Drug Inc., priority 1977, dated 1978).
Where a name gives a salt, the structure may show the parent alone.

Assays:
[1] = inhibition of carrageenin-induced foot edema test; assay type: in vivo; conditions: for inhibition in vivo at 324 µmol/kg: 0.324 mMole/kg; for inhibition in vivo at 80 µmol/kg: 0.08 mMole/kg; for side effects (footnote e): 4 hours post medication
Procedure: (§1) Anti-inflammatory activity was determined using (1) the inhibition of carrageenin-induced foot edema test essentially described by Van Arman et al., J. Pharmocol. Exptl. Therap. 150, 328 (1965) as a modification of the procedure of Winter et al., Proc. Soc. Exp. Biol. and Med. 111, 544 (1962) and (2) a modification of the inhibition of adjuvant-induced arthritis test described by Pearson, J. Chronic Diseases 16, 863 (1963) and Glenn et al., Am. J. Vet. Res. 26, 1180 (1965).
Representative examples of the compounds of this invention have been tested in the carrageenin edema and adjuvant arthritis tests as described hereinabove and found to have anti-inflammatory activity. Test data, given as percent inhibition at a dose expressed in millimoles (mMole/kg) are presented hereinbelow. All test compounds were administered orally.
The data for a number of examples are presented in several separate groups each representing the test results wherein anti-inflammatory activity was measured at one or more dose levels against a single set of controls.

[2] = inhibition of adjuvant-induced arthritis test; assay type: in vivo; conditions: for inhibition in vivo at 120 µmol/kg: 0.12 mMole/kg
Procedure: Anti-inflammatory activity was determined using (1) the inhibition of carrageenin-induced foot edema test essentially described by Van Arman et al., J. Pharmocol. Exptl. Therap. […] J. Vet.
All test compounds were administered orally.

[3] = acute oral toxicity, standard toxicological test procedures; conditions: in vivo; for LD50 at 168 h: acute oral, read-out: 7-day LD50
Procedure: Acute oral toxicity was determined for Examples 1E and (g) employing standard toxicological test procedures.

[4] = anti-inflammatory activity (test not given); conditions: in vivo
Procedure: as §1

CN1CCN(c2snc3cc(Cl)ccc23)CC1 [Example 4C, 6-chloro-3-(4-methyl-1-piperazinyl)-2,1-benzisothiazole]
inhibition in vivo at 324 µmol/kg ([1]; po): 41%
inhibition in vivo at 324 µmol/kg ([2]; po, 0.324 mMole/kg): 10%

CCN(CCO)CCCC(C)Nc1snc2cc(Cl)ccc12 (stereo not drawn) [Example 11, 6-chloro-3-<{4-[N-ethyl-N-(2-hydroxyethyl)amino]-1-methylbutyl}amino>-2,1-benzisothiazole 1,5-naphthalenedisulfonate]
inhibition in vivo at 80 µmol/kg ([1]; po): 18%
inhibition in vivo at 324 µmol/kg ([1]; po): 38%
inhibition in vivo at 240 µmol/kg ([2]; po, 0.24 mMole/kg): 54%
inhibition in vivo at 320 µmol/kg ([2]; po, 0.32 mMole/kg): 67%
inhibition in vivo at 324 µmol/kg ([2]; po, 0.324 mMole/kg): 36%
inhibition in vivo at 400 µmol/kg ([2]; po, 0.40 mMole/kg): 71%

CCN(CC)CCCC(C)Nc1snc2ccc(Cl)cc12 (stereo not drawn) [Example 10]
side effects (footnote e) ([1]; oral, 0.32 mMole/kg): skeletal muscle relaxation, hypothermia and ptosis
side effects (footnote e) ([1]; oral, 0.64 mMole/kg): skeletal muscle relaxation, hypothermia and ptosis
inhibition in vivo at 80 µmol/kg ([1]; po): 0%
inhibition in vivo at 320 µmol/kg ([1]; po, 0.32 mMole/kg): 62%
inhibition in vivo at 324 µmol/kg ([1]; po): 15%
inhibition in vivo at 640 µmol/kg ([1]; po, 0.64 mMole/kg): 50%

CN(C)CCCCNC(=S)c1ccc(Cl)cc1[N+](=O)[O-] [Example 7B, 4-chloro-N-[4-(dimethylamino)butyl]-2-nitrothiobenzamide]
side effects (footnote d) ([1]; oral, 1.11 mMole/kg): salivation
inhibition in vivo at 1110 µmol/kg ([1]; po, 1.11 mMole/kg): 63%
inhibition in vivo at 800 µmol/kg ([2]; po, 0.80 mMole/kg): 15%

CCN(CC)CCCC(C)Nc1snc2cc(Cl)ccc12 (stereo not drawn) [Example 1D, 6-chloro-3-[4-(diethylamino)-1-methylbutylamino]-2,1-benzisothiazole]
anti-inflammatory activity in carrageenin edema assay (in words) ([1]; in vivo): high degree of anti-inflammatory activity
Carrageenin edema % inhibition ([1]; oral, 0.03 mMole/kg): 19%
inhibition in vivo at 90 µmol/kg ([1]; po, 0.09 mMole/kg): 14%
inhibition in vivo at 270 µmol/kg ([1]; po, 0.27 mMole/kg): 29%
toxicity (in words) [3]: low toxicity
anti-inflammatory activity in adjuvant arthritis assay (in words) ([2]; in vivo): high degree of anti-inflammatory activity
inhibition in vivo at 120 µmol/kg ([2]; po): 65%

CCN(CC)CC(O)CNc1snc2cc(Cl)ccc12 (stereo not drawn) [Example 12, 6-chloro-3-{[3-(diethylamino)-2-hydroxypropyl]amino}-2,1-benzisothiazole]
inhibition in vivo at 80 µmol/kg ([1]; po): 14%
inhibition in vivo at 324 µmol/kg ([1]; po): 35%
inhibition in vivo at 324 µmol/kg ([2]; po, 0.324 mMole/kg): 16%

CCN(CC)CCCC(C)N(C)c1snc2cc(Cl)ccc12 (stereo not drawn) [Example 2C, 6-chloro-3-{[4-(diethylamino)-1-methylbutyl]methylamino}-2,1-benzisothiazole]
inhibition in vivo at 324 µmol/kg ([1]; po): 71%
toxicity in adjuvant arthritis test ([2]; oral, 0.324 mMole/kg): Toxic
inhibition in vivo at 72 µmol/kg ([2]; po, 0.072 mMole/kg): 0%

CCN(CC)Cc1cc(Nc2snc3ccccc23)ccc1O [Example 16, 3-{[3-(diethylamino)methyl-4-hydroxyphenyl]amino}-2,1-benzisothiazole]
inhibition in vivo at 80 µmol/kg ([1]; po): 2%
inhibition in vivo at 324 µmol/kg ([1]; po): 55%
inhibition in vivo at 324 µmol/kg ([2]; po, 0.324 mMole/kg): 18%

CCN(CC)CCCC(C)NC(=O)c1ccc(Cl)cc1[N+](=O)[O-] (stereo not drawn) [Example 1B, 4-chloro-N-[4-(diethylamino)-1-methylbutyl]-2-nitrobenzamide]
inhibition in vivo at 324 µmol/kg ([1]; po): 29%
inhibition in vivo at 324 µmol/kg ([2]; po, 0.324 mMole/kg): 16%

Clc1ccc2c(NCCN3CCN(c4ccccc4)CC3)snc2c1 [Example 13, 6-chloro-3-{[2-(4-phenyl-1-piperazinyl)ethyl]amino}-2,1-benzisothiazole]
inhibition in vivo at 64 µmol/kg ([1]; po, 0.064 mMole/kg): 35%
inhibition in vivo at 80 µmol/kg ([1]; po): 11%
inhibition in vivo at 324 µmol/kg ([1]; po): 16%

CN(C)CCNC(=S)c1ccc(Cl)cc1[N+](=O)[O-] [Example 5B, 4-chloro-N-[2-(dimethylamino)ethyl]-2-nitrothiobenzamide hydrochloride]
inhibition in vivo at 324 µmol/kg ([1]; po): 43%
inhibition in vivo at 324 µmol/kg ([2]; po, 0.324 mMole/kg): 2%

CN(C)CCCCNc1snc2cc(Cl)ccc12 [Example 7C, 6-chloro-3-{[4-(dimethylamino)butyl]amino}-2,1-benzisothiazole]
inhibition in vivo at 30 µmol/kg ([1]; po, 0.03 mMole/kg): 0%
inhibition in vivo at 90 µmol/kg ([1]; po, 0.09 mMole/kg): 9%
inhibition in vivo at 270 µmol/kg ([1]; po, 0.27 mMole/kg): 32%
inhibition in vivo at 324 µmol/kg ([2]; po, 0.324 mMole/kg): 25%

CCN(CC)CCCC(C)NC(=S)c1ccc(Cl)cc1[N+](=O)[O-].Cl (stereo not drawn) [Example 1C, 4-chloro-N-[4-(diethylamino)-1-methylbutyl]-2-nitrothiobenzamide hydrochloride]
inhibition in vivo at 324 µmol/kg ([1]; po): 38%
side effects (footnote b) ([2]; oral, 0.324 mMole/kg): loss of hair, yellow urine
inhibition in vivo at 324 µmol/kg ([2]; po, 0.324 mMole/kg): 60%

CCN(CC)CCCC(C)Nc1snc2ccccc12 (stereo not drawn) [(g), 3-[4-(diethylamino)-1-methylbutylamino]-2,1-benzisothiazole diphosphate, reference compound]
inhibition in vivo at 20 µmol/kg ([1]; po, 0.02 mMole/kg): 0%
LD50 at 168 h [3]: 1730 mg/kg
inhibition in vivo at 30 µmol/kg ([2]; po, 0.03 mMole/kg): 0%
inhibition in vivo at 60 µmol/kg ([2]; po, 0.06 mMole/kg): 1%
inhibition in vivo at 120 µmol/kg ([2]; po): 4%
inhibition in vivo at 240 µmol/kg ([2]; po, 0.24 mMole/kg): 0%

CN(C)CCCNc1snc2cc(Cl)ccc12 [Example 6C, 6-chloro-3-{[3-(dimethylamino)propyl]amino}-2,1-benzisothiazole dihydrochloride]
inhibition in vivo at 30 µmol/kg ([1]; po, 0.03 mMole/kg): 0%
inhibition in vivo at 90 µmol/kg ([1]; po, 0.09 mMole/kg): 24%
inhibition in vivo at 270 µmol/kg ([1]; po, 0.27 mMole/kg): 41%
inhibition in vivo at 324 µmol/kg ([1]; po): 35%
inhibition in vivo at 324 µmol/kg ([2]; po, 0.324 mMole/kg): 0%

CCN(CC)Cc1cc(Nc2snc3cc(Cl)ccc23)ccc1O [Example 15, 6-chloro-3-{[3-(diethylamino)methyl-4-hydroxyphenyl]amino}-2,1-benzisothiazole]
inhibition in vivo at 320 µmol/kg ([1]; po, 0.32 mMole/kg): 30%
inhibition in vivo at 640 µmol/kg ([1]; po, 0.64 mMole/kg): 32%

CN(C)CCNc1snc2ccc(Cl)cc12 [Example 9]
inhibition in vivo at 80 µmol/kg ([1]; po): 8%
inhibition in vivo at 320 µmol/kg ([1]; po, 0.32 mMole/kg): 0%
inhibition in vivo at 324 µmol/kg ([1]; po): 0%
inhibition in vivo at 640 µmol/kg ([1]; po, 0.64 mMole/kg): 23%

CCN(CC)Cc1cc(Nc2snc3ccc(Cl)cc23)ccc1O [Example 14, 5-chloro-3-{[3-(diethylamino)methyl-4-hydroxyphenyl]amino}-2,1-benzisothiazole]
inhibition in vivo at 80 µmol/kg ([1]; po): 22%
inhibition in vivo at 324 µmol/kg ([1]; po): 72%
inhibition in vivo at 80 µmol/kg ([2]; po, 0.08 mMole/kg): 0%

CN(C)CCNc1snc2cc(Cl)ccc12 [Example 5C]
inhibition in vivo at 30 µmol/kg ([1]; po, 0.03 mMole/kg): 19%
inhibition in vivo at 90 µmol/kg ([1]; po, 0.09 mMole/kg): 14%
inhibition in vivo at 270 µmol/kg ([1]; po, 0.27 mMole/kg): 29%
inhibition in vivo at 324 µmol/kg ([1]; po): 28%
inhibition in vivo at 324 µmol/kg ([2]; po, 0.324 mMole/kg): 0%

CCN(CC)CCCC(C)Nc1snc2ccccc12 (stereo not drawn) [3-[4-(diethylamino)-1-methylbutylamino]-2,1-benzisothiazole]
anti-inflammatory activity (in words) [4]: useful anti-inflammatory activity

Clc1ccc2c(NCCN3CCCC3)snc2c1 [Example 3C, 6-chloro-3-{[2-(1-pyrrolidinyl)-ethyl]amino}-2,1-benzisothiazole]
inhibition in vivo at 30 µmol/kg ([1]; po, 0.03 mMole/kg): 15%
inhibition in vivo at 90 µmol/kg ([1]; po, 0.09 mMole/kg): 12%
inhibition in vivo at 270 µmol/kg ([1]; po, 0.27 mMole/kg): 32%
inhibition in vivo at 320 µmol/kg ([1]; po, 0.32 mMole/kg): 29%
inhibition in vivo at 640 µmol/kg ([1]; po, 0.64 mMole/kg): 52%
inhibition in vivo at 324 µmol/kg ([2]; po, 0.324 mMole/kg): 14%

CN1CCN(C(=S)c2ccc(Cl)cc2[N+](=O)[O-])CC1 [Example 4B, 1-(4-chloro-2-nitrothiobenzoyl)-4-methylpiperazine]
inhibition in vivo at 324 µmol/kg ([1]; po): 28%
inhibition in vivo at 324 µmol/kg ([2]; po, 0.324 mMole/kg): 0%

CN1CCN(c2snc3ccc(Cl)cc23)CC1 [Example 8, 5-chloro-3-(4-methyl-1-piperazinyl)-2,1-benzisothiazole]
inhibition in vivo at 80 µmol/kg ([1]; po): 15%
inhibition in vivo at 324 µmol/kg ([1]; po): 51%
inhibition in vivo at 324 µmol/kg ([2]; po, 0.324 mMole/kg): 0%

CN(C)CCCNC(=S)c1ccc(Cl)cc1[N+](=O)[O-] [Example 6B, 4-chloro-N-[3-(dimethylamino)propyl]-2-nitrothiobenzamide hydrochloride]
inhibition in vivo at 324 µmol/kg ([1]; po): 39%
inhibition in vivo at 324 µmol/kg ([2]; po, 0.324 mMole/kg): 8%

CCN(CC)CCCC(C)Nc1snc2cc(Cl)ccc12 (stereo not drawn) [Example 1E, 6-chloro-3-[4-(diethylamino)-1-methylbutylamino]-2,1-benzisothiazole diphosphate]
Carrageenin edema % inhibition ([1]; oral, 0.03 mMole/kg): 4%
Carrageenin edema % inhibition ([1]; oral, 0.09 mMole/kg): 25%
Carrageenin edema % inhibition ([1]; oral, 0.27 mMole/kg): 39%
side effects (footnote c) ([1]; oral, 0.64 mMole/kg): hypothermia
inhibition in vivo at 640 µmol/kg ([1]; po, 0.64 mMole/kg): 60%
LD50 at 168 h [3]: 1430 mg/kg
toxicity in adjuvant arthritis test ([2]; oral, 0.24 mMole/kg): toxic
